# Test results reported in US20140142055A1, “METHODS OF TREATING RECURRENT MEIBOMIAN GLANDS DISORDER AND THEREBY DECREASING THE FREQUENCY OF RECURRENCE” (INSITE VISION CORPORATION, priority 2011, published 2014).
# Experiment: Release of fluorometholone from the gelled aqueous polymer suspension in the rabbit eye, measured in the aqueous humor
# Type: in vivo
# Conditions: topical sustained-release aqueous suspension of lightly cross-linked carboxyl-containing polymer
# Procedure: The viscous gels that result from fluid eye drops delivered by means of the aqueous suspensions have residence times in the eye ranging from about 2 to about 12 hours, e.g., from about 3 to about 6 hours. The active ingredients contained in these ophthalmically acceptable vehicles can be released from the gels at rates that depend on such factors as the active ingredient itself and its physical form, the extent of drug loading and the pH of the system, as well as on any drug delivery adjuvants, such as ion exchange resins compatible with the ocular surface, which can also be present.
smiles,measurement,value
CC(=O)[C@@]1(O)CC[C@H]2[C@@H]3C[C@H](C)C4=CC(=O)C=C[C@]4(C)[C@@]3(F)[C@@H](O)C[C@@]21C [fluorometholone],"release rates in the rabbit eye, as measured by fluorometholone contained in the aqueous humor",in excess of four hours
